Laboratory results: patent publication US20250034150A1, “BTK INHIBITORS” (BIOGEN MA INC., priority 2021, published 2025)
Like-named read-outs stand apart in the source and are kept apart here.

How the values were obtained:
[1] = target: T1, BTK (Homo sapiens, UniProt Q06187); assay: In Vitro BTK Kinase Assay: Btk-PolyGAT-LS Assay; format: biochemical; conditions: active BTK enzyme 0.25 nM, polyGAT 100 nM, 30 minutes, TRF readout; read-out: In Vitro BTK Kinase Assay IC50 Score
T1 construct: purchased Upstate 14-552
T1 sequence (Q06187 whole entry): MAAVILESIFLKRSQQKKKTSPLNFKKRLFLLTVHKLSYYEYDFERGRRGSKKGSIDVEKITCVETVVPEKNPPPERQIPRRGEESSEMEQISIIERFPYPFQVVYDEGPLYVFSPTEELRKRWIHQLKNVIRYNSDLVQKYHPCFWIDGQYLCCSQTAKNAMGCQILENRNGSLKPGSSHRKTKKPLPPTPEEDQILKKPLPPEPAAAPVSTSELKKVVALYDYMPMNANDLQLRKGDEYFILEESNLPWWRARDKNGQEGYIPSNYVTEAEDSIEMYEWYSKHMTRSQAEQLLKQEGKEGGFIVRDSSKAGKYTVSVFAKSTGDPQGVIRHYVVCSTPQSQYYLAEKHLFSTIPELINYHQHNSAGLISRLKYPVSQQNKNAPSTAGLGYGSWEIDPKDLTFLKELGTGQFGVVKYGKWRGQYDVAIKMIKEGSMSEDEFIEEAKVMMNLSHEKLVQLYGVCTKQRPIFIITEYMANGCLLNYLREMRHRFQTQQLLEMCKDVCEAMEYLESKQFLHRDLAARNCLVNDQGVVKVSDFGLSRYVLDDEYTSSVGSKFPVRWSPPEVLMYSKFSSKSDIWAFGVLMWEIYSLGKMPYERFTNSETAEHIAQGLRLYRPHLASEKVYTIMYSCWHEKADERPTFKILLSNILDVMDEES
In short: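 Active BTK at 0.25 nM phosphorylated 100 nM fluorescein-polyGAT peptide at 10 μM ATP for 30 minutes. Buffer was Tris pH 7.5 with MgCl2, DTT, Triton X-100 and casein, and reactions were stopped with EDTA. Phospho-peptide was detected by Tb-PY20 antibody TR-FRET, and IC50 came from a four-parameter fit normalized to DMSO and EDTA controls.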

[2] = system: CD69 expression on CD19+ B cells in human whole blood; assay: In Vitro whole blood CD69 Assay; format: cell-based; conditions: B-cell, read-out: In Vitro HWB CD69 Assay IC50 Score
In short: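 Heparinized healthy-donor human whole blood was preincubated with compound (0.1% DMSO) for 30 min at 37 °C. Stimulation used 0.1 µg/mL anti-IgD-dextran or 20 µg/mL rabbit F(ab′)2 anti-IgD for 18–22 h at 37 °C. CD69 on gated CD19+ B cells was then measured by flow cytometry.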

[3] = human heparinized whole blood, anti-human IgD stimulation overnight, CD19+ B cells, flow cytometry

SMILES | IC50 [1] | IC50 [2, 3] | IC50 ([2]; Homo sapiens)
Cn1cc(-c2cn3nccc3c(N3CCC(C)(CNC(=O)c4nc(C(C)(C)C)no4)CC3)n2)cn1 [Example 47, 3-(tert-butyl)-N-((4-methyl-1-(6-(1-methyl-1H-pyrazol-4-yl)pyrazolo[1,5-a]pyrazin-4-yl)piperidin-4-yl)methyl)-1,2,4-oxadiazole-5-carboxamide] | 1 to 10 nM | 1000 to 10000 nM | 
Cn1cc(-c2cn3nccc3c(-c3ccc(CNC(=O)c4cn(C(C)(C)C)nn4)cc3)n2)cn1 [Example 4, 1-(tert-butyl)-N-(4-(6-(1-methyl-1H-pyrazol-4-yl)pyrazolo[1,5-a]pyrazin-4-yl)benzyl)-1H-1,2,3-triazole-4-carboxamide] | < 1 nM | < 1000 nM | 
Cn1cc(-c2cn3nccc3c(-c3ccc(CNC(=O)c4nnn(C(C)(C)C)n4)c(F)c3)n2)cn1 [Example 7, 2-(tert-butyl)-N-(2-fluoro-4-(6-(1-methyl-1H-pyrazol-4-yl)pyrazolo[1,5-a]pyrazin-4-yl)benzyl)-2H-tetrazole-5-carboxamide] | < 1 nM | < 1000 nM | 
CC(C)(C)c1noc(C(=O)NCc2ccc(-c3nc(N4CCOCC4)cn4nccc34)cc2)n1 [Example 24, 3-(tert-butyl)-N-(4-(6-morpholinopyrazolo[1,5-a]pyrazin-4-yl)benzyl)-1,2,4-oxadiazole-5-carboxamide] | 10 to 1000 nM | 1000 to 10000 nM | 
Cn1cc(-c2cc3nccn3c(-c3ccc(CNC(=O)c4nc(C5(CF)CC5)no4)cc3)n2)cn1 [Example 63, 3-(1-(fluoromethyl)cyclopropyl)-N-(4-(7-(1-methyl-1H-pyrazol-4-yl)imidazo[1,2-c]pyrimidin-5-yl)benzyl)-1,2,4-oxadiazole-5-carboxamide] | 1 to 10 nM |  | 1000 to 10000 nM
Cn1cc(-c2cn3nccc3c(N3CCC(C)(CNC(=O)c4cn(C(C)(C)C)nn4)CC3)n2)cn1 [Example 44, 1-(tert-butyl)-N-((4-methyl-1-(6-(1-methyl-1H-pyrazol-4-yl)pyrazolo[1,5-a]pyrazin-4-yl)piperidin-4-yl)methyl)-1H-1,2,3-triazole-4-carboxamide] | 10 to 1000 nM | 1000 to 10000 nM | 
CC(C)(C)n1nnc(C(=O)NCc2ccc(-c3nc(N4CCOCC4)cn4nccc34)cc2)n1 [Example 25, 2-(tert-butyl)-N-(4-(6-morpholinopyrazolo[1,5-a]pyrazin-4-yl)benzyl)-2H-tetrazole-5-carboxamide] | 10 to 1000 nM | 1000 to 10000 nM | 
Cn1cc(-c2cn3nccc3c(N3CCC(C)(CNC(=O)c4noc(C5(C)CC5)n4)CC3)n2)cn1 [Example 46, N-((4-methyl-1-(6-(1-methyl-1H-pyrazol-4-yl)pyrazolo[1,5-a]pyrazin-4-yl)piperidin-4-yl)methyl)-5-(1-methylcyclopropyl)-1,2,4-oxadiazole-3-carboxamide] | 10 to 1000 nM | 1000 to 10000 nM | 
Cn1cc(-c2cn3nccc3c(N3CCC(CNC(=O)c4noc(C(C)(C)C)n4)C(F)(F)C3)n2)cn1 (stereo not shown) [Example 157, 5-(tert-butyl)-N-((3,3-difluoro-1-(6-(1-methyl-1H-pyrazol-4-yl)pyrazolo[1,5-a]pyrazin-4-yl)piperidin-4-yl)methyl)-1,2,4-oxadiazole-3-carboxamide] | < 1 nM | < 1000 nM | 

Now from value to compound, other results behind:

IC50 [1] | IC50 [2, 3] | SMILES | IC50 ([2]; Homo sapiens)
< 1 nM | < 1000 nM | Cn1cc(-c2cn3nccc3c(-c3ccc(CNC(=O)c4nc(C(C)(C)CF)no4)c(F)c3)n2)cn1 [Example 13, 3-(1-fluoro-2-methylpropan-2-yl)-N-(2-fluoro-4-(6-(1-methyl-1H-pyrazol-4-yl)pyrazolo[1,5-a]pyrazin-4-yl)benzyl)-1,2,4-oxadiazole-5-carboxamide] | 
< 1 nM | < 1000 nM | Cn1cc(-c2cn3nccc3c(-c3ccc(CNC(=O)c4noc(C(C)(C)C)n4)c(C(F)F)c3)n2)cn1 [Example 86, 5-(tert-butyl)-N-(2-(difluoromethyl)-4-(6-(1-methyl-1H-pyrazol-4-yl)pyrazolo[1,5-a]pyrazin-4-yl)benzyl)-1,2,4-oxadiazole-3-carboxamide] | 
1 to 10 nM | 1000 to 10000 nM | Cn1cc(-c2cn3nccc3c(-c3ccc(CNC(=O)c4ccn(C(C)(C)C)n4)c(F)c3)n2)cn1 [Example 11, 1-(tert-butyl)-N-(2-fluoro-4-(6-(1-methyl-1H-pyrazol-4-yl)pyrazolo[1,5-a]pyrazin-4-yl)benzyl)-1H-pyrazole-3-carboxamide] | 
< 1 nM | < 1000 nM | Cc1cc(-c2nc(-c3cnn(C)c3)cn3nccc23)ccc1CNC(=O)c1cn(C(C)(C)C)nn1 [Example 16, 1-(tert-butyl)-N-(2-methyl-4-(6-(1-methyl-1H-pyrazol-4-yl)pyrazolo[1,5-a]pyrazin-4-yl)benzyl)-1H-1,2,3-triazole-4-carboxamide] | 
< 1 nM | < 1000 nM | Cn1cc(-c2cn3nccc3c(-c3ccc(CNC(=O)c4coc(C(C)(C)C)n4)c(F)c3F)n2)cn1 [Example 90, 2-(tert-butyl)-N-(2,3-difluoro-4-(6-(1-methyl-1H-pyrazol-4-yl)pyrazolo[1,5-a]pyrazin-4-yl)benzyl)oxazole-4-carboxamide] | 
